# Measured values published in patent US20210386367A1, “DEVICES AND SYSTEMS FOR GASTROINTESTINAL MICROBIOME DETECTION AND MANIPULATION” (Progenity, Inc., priority 2018, published 2021).
# Read-outs that look alike come from different tables or passages of the source.
# Tests used:
# [1] = tested on: Bacteroides spp. (B. fragilis ATCC 25285, B. vulgatus, B. ovatus MMX 3503); assay: Agar dilution MIC (spontaneous mutation study; strain in conditions); type: cell-based
# [2] = tested on: Streptococcus spp. (S. pneumoniae ATCC 49619, S. pyogenes ATCC 49399, S. agalactiae ATCC 13813); assay: as above; type: cell-based
# [3] = tested on: Veillonella spp.; assay: Agar dilution MIC, 30 clinical isolates; type: cell-based; conditions: for Mode: modal MIC
# [4] = tested on: Proteus mirabilis; assay: Broth microdilution MIC, 50 clinical isolates; type: cell-based
# In short: (§1)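 Medium: cation-adjusted MHB, plus 3% lysed horse blood for streptococci, which were incubated with CO2 planchets. Final inoculum approx. 5×10^5 CFU/mL; serial two-fold drug dilutions per CLSI.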
# [5] = tested on: Enterobacter aerogenes; assay: Broth microdilution MIC, 50 clinical isolates; type: cell-based
# In short: as §1
# [6] = tested on: Pseudomonas aeruginosa; assay: Broth microdilution MIC, 50 clinical isolates; type: cell-based
# In short: as §1
# [7] = tested on: SIBO Bacteria; conditions: cited from earlier work
# [8] = tested on: S. pneumoniae ATCC 49619; conditions: cited from earlier work
# [9] = 30 Veillonella spp. clinical isolates
compound,measurement,setting,value
CO[C@H]1/C=C/O[C@@]2(C)Oc3c(C)c(O)c4c(O)c(c5c(nc6cc(C)ccn65)c4c3C2=O)NC(=O)/C(C)=C\C=C\[C@H](C)[C@H](O)[C@@H](C)[C@@H](O)[C@@H](C)[C@H](OC(C)=O)[C@@H]1C [rifaximin],Agar MIC,[1]; B. fragilis ATCC 25285,0.25 µg/mL
same,Agar MIC,[1]; B. ovatus MMX 3503,0.5 µg/mL
same,Agar MIC,[1]; B. vulgatus ATCC 8482,0.12 µg/mL
same,Agar MIC,[2]; S. agalactiae ATCC 13813,0.25 µg/mL
same,Agar MIC,[2]; S. pneumoniae ATCC 49619,0.03 µg/mL
same,Agar MIC,[2]; S. pyogenes ATCC 49399,0.12 µg/mL
same,MIC values (agar dilution),[2]; over evaluated Streptococcus spp. (range stated jointly with other groups),0.03 to 0.5 µg/mL
same,MIC50,[3],4 µg/mL
same,MIC90,[3],8 µg/mL
same,MIC50,[3]; [9],4 µg/mL
same,MIC90,[3]; [9],8 µg/mL
same,MIC range,[3]; [9],0.12 to 16 µg/mL
same,Mode,[3]; [9],2 µg/mL
same,MIC50,[4],4 µg/mL
same,MIC90,[4],8 µg/mL
same,Mode,[4],4 µg/mL
same,Cumulative percentage of isolates inhibited at MIC,[4]; 4 μg/mL,84.0%
same,Number of test isolates at MIC,[4]; 4 μg/mL,42
same,Cumulative percentage of isolates inhibited at MIC,[4]; 8 μg/mL,96.0%
same,Number of test isolates at MIC,[4]; 8 μg/mL,6
same,Cumulative percentage of isolates inhibited at MIC,[4]; >64 μg/mL,100.0%
same,Number of test isolates at MIC,[4]; >64 μg/mL,2
same,MIC50,[5],16 µg/mL
same,MIC90,[5],64 µg/mL
same,Mode,[5],16 µg/mL
same,Cumulative percentage of isolates inhibited at MIC,[5]; 8 μg/mL,20.0%
same,Number of test isolates at MIC,[5]; 8 μg/mL,10
same,Cumulative percentage of isolates inhibited at MIC,[5]; 16 μg/mL,64.0%
same,Number of test isolates at MIC,[5]; 16 μg/mL,22
same,Cumulative percentage of isolates inhibited at MIC,[5]; 32 μg/mL,88.0%
same,Number of test isolates at MIC,[5]; 32 μg/mL,12
same,Cumulative percentage of isolates inhibited at MIC,[5]; 64 μg/mL,98.0%
same,Number of test isolates at MIC,[5]; 64 μg/mL,5
same,Cumulative percentage of isolates inhibited at MIC,[5]; >64 μg/mL,100.0%
same,Number of test isolates at MIC,[5]; >64 μg/mL,1
same,MIC50,[6],8 µg/mL
same,MIC90,[6],16 µg/mL
same,Mode,[6],8 µg/mL
same,Cumulative percentage of isolates inhibited at MIC,[6]; 4 μg/mL,16.0%
same,Number of test isolates at MIC,[6]; 4 μg/mL,8
same,Cumulative percentage of isolates inhibited at MIC,[6]; 8 μg/mL,66.0%
same,Number of test isolates at MIC,[6]; 8 μg/mL,25
same,Cumulative percentage of isolates inhibited at MIC,[6]; 16 μg/mL,94.0%
same,Number of test isolates at MIC,[6]; 16 μg/mL,14
same,Cumulative percentage of isolates inhibited at MIC,[6]; 32 μg/mL,96.0%
same,Number of test isolates at MIC,[6]; 32 μg/mL,1
same,Cumulative percentage of isolates inhibited at MIC,[6]; 64 μg/mL,98.0%
same,Number of test isolates at MIC,[6]; 64 μg/mL,1
same,Cumulative percentage of isolates inhibited at MIC,[6]; >64 μg/mL,100.0%
same,Number of test isolates at MIC,[6]; >64 μg/mL,1
COc1c(N2C[C@@H]3CCCN[C@@H]3C2)c(F)cc2c(=O)c(C(=O)O)cn(C3CC3)c12 [moxifloxacin],Mode,[4],0.25 µg/mL
same,Cumulative percentage of isolates inhibited at MIC,[4]; 0.5 μg/mL,60.0%
same,Number of test isolates at MIC,[4]; 0.5 μg/mL,9
same,Cumulative percentage of isolates inhibited at MIC,[4]; 1 μg/mL,64.0%
same,Number of test isolates at MIC,[4]; 1 μg/mL,2
same,Cumulative percentage of isolates inhibited at MIC,[4]; 4 μg/mL,66.0%
same,Number of test isolates at MIC,[4]; 4 μg/mL,1
same,Cumulative percentage of isolates inhibited at MIC,[4]; 8 μg/mL,68.0%
same,Number of test isolates at MIC,[4]; 8 μg/mL,1
same,Cumulative percentage of isolates inhibited at MIC,[4]; 16 μg/mL,72.0%
same,Number of test isolates at MIC,[4]; 16 μg/mL,2
same,Cumulative percentage of isolates inhibited at MIC,[4]; 32 μg/mL,82.0%
same,Number of test isolates at MIC,[4]; 32 μg/mL,5
same,Cumulative percentage of isolates inhibited at MIC,[4]; 64 μg/mL,90.0%
same,Number of test isolates at MIC,[4]; 64 μg/mL,4
same,Cumulative percentage of isolates inhibited at MIC,[4]; 128 μg/mL,98.0%
same,Number of test isolates at MIC,[4]; 128 μg/mL,4
same,Cumulative percentage of isolates inhibited at MIC,[4]; >128 μg/mL,100.0%
same,Number of test isolates at MIC,[4]; >128 μg/mL,1
same,MIC50,"[4]; Proteus mirabilis, read-out: MIC50",0.5 µg/mL
same,MIC90,"[4]; Proteus mirabilis, read-out: MIC90",64 µg/mL
same,MIC range,[5],0.03 to 0.5 µg/mL
same,Mode,[5],0.12 µg/mL
same,Cumulative percentage of isolates inhibited at MIC,[5]; 0.03 μg/mL,10.0%
same,Number of test isolates at MIC,[5]; 0.03 μg/mL,5
same,Cumulative percentage of isolates inhibited at MIC,[5]; 0.06 μg/mL,50.0%
same,Number of test isolates at MIC,[5]; 0.06 μg/mL,20
same,Cumulative percentage of isolates inhibited at MIC,[5]; 0.5 μg/mL,100.0%
same,Number of test isolates at MIC,[5]; 0.5 μg/mL,2
same,MIC50,"[5]; Klebsiella aerogenes, read-out: MIC50",0.06 µg/mL
same,MIC90,"[5]; Klebsiella aerogenes, read-out: MIC90",0.12 µg/mL
same,MIC range,[6],0.12-32 ^ μg/mL
same,Mode,[6],1 µg/mL
same,Cumulative percentage of isolates inhibited at MIC,[6]; 0.5 μg/mL,20.0%
same,Number of test isolates at MIC,[6]; 0.5 μg/mL,8
same,Cumulative percentage of isolates inhibited at MIC,[6]; 1 μg/mL,58.0%
same,Number of test isolates at MIC,[6]; 1 μg/mL,19
same,Cumulative percentage of isolates inhibited at MIC,[6]; 2 μg/mL,60.0%
same,Number of test isolates at MIC,[6]; 2 μg/mL,1
same,Cumulative percentage of isolates inhibited at MIC,[6]; 4 μg/mL,66.0%
same,Number of test isolates at MIC,[6]; 4 μg/mL,3
same,Cumulative percentage of isolates inhibited at MIC,[6]; 8 μg/mL,78.0%
same,Number of test isolates at MIC,[6]; 8 μg/mL,6
same,Cumulative percentage of isolates inhibited at MIC,[6]; 16 μg/mL,90.0%
same,Number of test isolates at MIC,[6]; 16 μg/mL,6
same,Cumulative percentage of isolates inhibited at MIC,[6]; 32 μg/mL,100.0%
same,Number of test isolates at MIC,[6]; 32 μg/mL,5
same,MIC50,"[6]; Pseudomonas aeruginosa, read-out: MIC50",1 µg/mL
same,MIC90,"[6]; Pseudomonas aeruginosa, read-out: MIC90",16 µg/mL
same,Number of test isolates at MIC,[6]; […],1
piperacillin/tazobactam [piperacillin-tazobactam],% S,[4],100%
same,MIC50,[4],0.25 µg/mL
same,MIC90,[4],1 µg/mL
same,MIC range,[4],≤0.12 to 2 µg/mL
same,Mode,[4],0.25 µg/mL
same,Cumulative percentage of isolates inhibited at MIC,[4]; 0.5 μg/mL,82.0%
same,Number of test isolates at MIC,[4]; 0.5 μg/mL,16
same,Cumulative percentage of isolates inhibited at MIC,[4]; 1 μg/mL,96.0%
same,Number of test isolates at MIC,[4]; 1 μg/mL,7
same,Cumulative percentage of isolates inhibited at MIC,[4]; 2 μg/mL,100.0%
same,Number of test isolates at MIC,[4]; 2 μg/mL,2
same,Cumulative percentage of isolates inhibited at MIC,[4]; […],50.0%
same,Number of test isolates at MIC,[4]; […],22
same,Cumulative percentage of isolates inhibited at MIC,[4]; ≤[…],6.0%
same,Number of test isolates at MIC,[4]; ≤[…],3
same,% I,[5],16%
same,% R,[5],8%
same,% S,[5],76%
same,MIC50,[5],4 µg/mL
same,MIC90,[5],64 µg/mL
same,Mode,[5],2 µg/mL
same,Cumulative percentage of isolates inhibited at MIC,[5]; 1 μg/mL,4.0%
same,Number of test isolates at MIC,[5]; 1 μg/mL,2
same,Cumulative percentage of isolates inhibited at MIC,[5]; 2 μg/mL,38.0%
same,Number of test isolates at MIC,[5]; 2 μg/mL,17
same,Cumulative percentage of isolates inhibited at MIC,[5]; 4 μg/mL,62.0%
same,Number of test isolates at MIC,[5]; 4 μg/mL,12
same,Cumulative percentage of isolates inhibited at MIC,[5]; 8 μg/mL,74.0%
same,Number of test isolates at MIC,[5]; 8 μg/mL,6
same,Cumulative percentage of isolates inhibited at MIC,[5]; 16 μg/mL,76.0%
same,Number of test isolates at MIC,[5]; 16 μg/mL,1
same,Cumulative percentage of isolates inhibited at MIC,[5]; 32 μg/mL,88.0%
same,Number of test isolates at MIC,[5]; 32 μg/mL,6
same,Cumulative percentage of isolates inhibited at MIC,[5]; 64 μg/mL,92.0%
same,Number of test isolates at MIC,[5]; 64 μg/mL,2
same,Cumulative percentage of isolates inhibited at MIC,[5]; 128 μg/mL,98.0%
same,Number of test isolates at MIC,[5]; 128 μg/mL,3
same,Cumulative percentage of isolates inhibited at MIC,[5]; >128 μg/mL,100.0%
same,Number of test isolates at MIC,[5]; >128 μg/mL,1
same,% I,[6],14%
same,% R,[6],22%
same,% S,[6],64%
same,MIC50,[6],8 µg/mL
same,MIC90,[6],>128 µg/mL
same,Mode,[6],4 µg/mL
same,Cumulative percentage of isolates inhibited at MIC,[6]; 2 μg/mL,6.0%
same,Number of test isolates at MIC,[6]; 2 μg/mL,3
same,Cumulative percentage of isolates inhibited at MIC,[6]; 4 μg/mL,40.0%
same,Number of test isolates at MIC,[6]; 4 μg/mL,17
same,Cumulative percentage of isolates inhibited at MIC,[6]; 8 μg/mL,60.0%
same,Number of test isolates at MIC,[6]; 8 μg/mL,10
same,Cumulative percentage of isolates inhibited at MIC,[6]; 16 μg/mL,64.0%
same,Number of test isolates at MIC,[6]; 16 μg/mL,2
same,Cumulative percentage of isolates inhibited at MIC,[6]; 32 μg/mL,74.0%
same,Number of test isolates at MIC,[6]; 32 μg/mL,5
same,Cumulative percentage of isolates inhibited at MIC,[6]; 64 μg/mL,78.0%
same,Number of test isolates at MIC,[6]; 64 μg/mL,2
same,Cumulative percentage of isolates inhibited at MIC,[6]; 128 μg/mL,84.0%
same,Number of test isolates at MIC,[6]; 128 μg/mL,3
same,Cumulative percentage of isolates inhibited at MIC,[6]; >128 μg/mL,100.0%
same,Number of test isolates at MIC,[6]; >128 μg/mL,8
same,activity against SIBO organisms,[7],active against SIBO organisms
Cc1ncc([N+](=O)[O-])n1CCO [MTZ],% R,[3]; [9],17%
same,% S,[3]; [9],83%
same,MIC50,[3]; [9],4 µg/mL
same,MIC90,[3]; [9],>32 µg/mL
same,Mode,[3]; [9],4 µg/mL
"CN[C@H](CC(C)C)C(=O)N[C@H]1C(=O)N[C@@H](CC(N)=O)C(=O)N[C@H]2C(=O)N[C@H]3C(=O)N[C@H](C(=O)N[C@H](C(=O)O)c4cc(O)cc(O)c4-c4cc3ccc4O)[C@H](O)c3ccc(c(Cl)c3)Oc3cc2cc(c3O[C@@H]2O[C@H](CO)[C@@H](O)[C@H](O)[C@H]2O[C@H]2C[C@](C)(N)[C@H](O)[C@H](C)O2)Oc2ccc(cc2Cl)[C@H]1O [vancomycin, Vancomycin]",CLSI QC range (MIC),[8],(0.12-0.5) μg/mL
